Measured values taken from PubChem BioAssay (NCI).
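Cultured in 96-well plates, cells were exposed to test compound for 48 hours across five concentrations. The concentration for 50% growth inhibition is given as GI50. At the TGI there is no net growth.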

Experiments:
Experiment in all cases: DTP human tumour cell line panel, 48 h
T-47D breast = system: T-47D breast
MDA-MB-468 breast = system: MDA-MB-468 breast
PC-3 prostate = system: PC-3 prostate
MOLT-4 leukemia = system: MOLT-4 leukemia
UO-31 renal = system: UO-31 renal
SF-295 CNS = system: SF-295 CNS
KM12 colon = system: KM12 colon
SK-MEL-5 melanoma = system: SK-MEL-5 melanoma
SF-268 CNS = system: SF-268 CNS
IGROV1 ovarian = system: IGROV1 ovarian
TK-10 renal = system: TK-10 renal
UACC-62 melanoma = system: UACC-62 melanoma
SNB-75 CNS = system: SNB-75 CNS
SW-620 colon = system: SW-620 colon
MDA-MB-435 = system: MDA-MB-435
MALME-3M melanoma = system: MALME-3M melanoma
HT29 colon = system: HT29 colon
RXF 393 renal = system: RXF 393 renal
NCI-H460 lung = system: NCI-H460 lung
NCI-H226 lung = system: NCI-H226 lung
LOX IMVI melanoma = system: LOX IMVI melanoma
NCI-H522 lung = system: NCI-H522 lung
HOP-92 NSCLC = system: HOP-92 NSCLC
M14 melanoma = system: M14 melanoma
SK-MEL-2 melanoma = system: SK-MEL-2 melanoma
SF-539 CNS = system: SF-539 CNS
SN12C renal = system: SN12C renal
UACC-257 melanoma = system: UACC-257 melanoma
OVCAR-8 ovarian = system: OVCAR-8 ovarian
SK-MEL-28 melanoma = system: SK-MEL-28 melanoma
A549 NSCLC = system: A549 NSCLC
SNB-19 CNS = system: SNB-19 CNS
U251 CNS = system: U251 CNS
HCC-2998 colon = system: HCC-2998 colon
COLO 205 colon = system: COLO 205 colon
MCF7 breast = system: MCF7 breast
SK-OV-3 ovarian = system: SK-OV-3 ovarian
NCI/ADR-RES ovarian = system: NCI/ADR-RES ovarian
786-0 renal = system: 786-0 renal
HL-60(TB) leukemia = system: HL-60(TB) leukemia
CCRF-CEM leukemia = system: CCRF-CEM leukemia
CAKI-1 renal = system: CAKI-1 renal
HCT-15 colon = system: HCT-15 colon
K-562 leukemia = system: K-562 leukemia
RPMI-8226 leukemia = system: RPMI-8226 leukemia
OVCAR-4 ovarian = system: OVCAR-4 ovarian
BT-549 breast = system: BT-549 breast
HCT-116 colon = system: HCT-116 colon
NCI-H23 lung = system: NCI-H23 lung
HS 578T breast = system: HS 578T breast
OVCAR-3 ovarian = system: OVCAR-3 ovarian
MDA-MB-231 breast = system: MDA-MB-231 breast
ACHN renal = system: ACHN renal
SR leukemia = system: SR leukemia
HOP-62 NSCLC = system: HOP-62 NSCLC
OVCAR-5 ovarian = system: OVCAR-5 ovarian
DU-145 prostate = system: DU-145 prostate
A498 renal = system: A498 renal
EKVX NSCLC = system: EKVX NSCLC

CN(C)c1nc(NCCNS(=O)(=O)c2ccc(C(=O)/C=C/c3ccccc3)cc2)nc(Nc2ccc(F)cc2)n1
GI50 (T-47D breast): 3.45 µM | TGI (T-47D breast): 14.2 µM | GI50 (MDA-MB-468 breast): 2.84 µM | TGI (MDA-MB-468 breast): 12.8 µM | GI50 (PC-3 prostate): 4.39 µM | TGI (PC-3 prostate): 20.6 µM | GI50 (MOLT-4 leukemia): 3.22 µM | TGI (MOLT-4 leukemia): 29.6 µM | GI50 (UO-31 renal): 4.6 µM | TGI (UO-31 renal): 17.2 µM | GI50 (SF-295 CNS): 6.96 µM | TGI (SF-295 CNS): 19.3 µM | GI50 (KM12 colon): 3.74 µM | TGI (KM12 colon): 14 µM | GI50 (SK-MEL-5 melanoma): 4.7 µM | TGI (SK-MEL-5 melanoma): 16.9 µM | GI50 (SF-268 CNS): 5.65 µM | TGI (SF-268 CNS): 22.2 µM | GI50 (IGROV1 ovarian): 11.2 µM | TGI (IGROV1 ovarian): 23.8 µM | GI50 (TK-10 renal): 14.6 µM | TGI (TK-10 renal): 30.9 µM | GI50 (UACC-62 melanoma): 6.68 µM | TGI (UACC-62 melanoma): 20.3 µM | GI50 (SNB-75 CNS): 3.23 µM | TGI (SNB-75 CNS): 33.4 µM | GI50 (SW-620 colon): 5.56 µM | TGI (SW-620 colon): 20.4 µM | GI50 (MDA-MB-435): 7.44 µM | TGI (MDA-MB-435): 23 µM | GI50 (MALME-3M melanoma): 12.7 µM | TGI (MALME-3M melanoma): 26.3 µM | GI50 (HT29 colon): 3.08 µM | TGI (HT29 colon): 10.6 µM | GI50 (RXF 393 renal): 2.94 µM | TGI (RXF 393 renal): 14.6 µM | GI50 (NCI-H460 lung): 4.34 µM | TGI (NCI-H460 lung): 16.8 µM | GI50 (NCI-H226 lung): 5.22 µM | TGI (NCI-H226 lung): 19.8 µM | GI50 (LOX IMVI melanoma): 2.47 µM | TGI (LOX IMVI melanoma): 7.14 µM | GI50 (NCI-H522 lung): 5.47 µM | TGI (NCI-H522 lung): 20.4 µM | GI50 (HOP-92 NSCLC): 8.1 µM | TGI (HOP-92 NSCLC): 23.4 µM | GI50 (M14 melanoma): 5.98 µM | TGI (M14 melanoma): 20 µM | GI50 (SK-MEL-2 melanoma): 10.6 µM | TGI (SK-MEL-2 melanoma): 24.3 µM | GI50 (SF-539 CNS): 12 µM | TGI (SF-539 CNS): 24.5 µM | GI50 (SN12C renal): 8.2 µM | TGI (SN12C renal): 20.7 µM | GI50 (UACC-257 melanoma): 12.6 µM | TGI (UACC-257 melanoma): 27.8 µM | GI50 (OVCAR-8 ovarian): 12.2 µM | TGI (OVCAR-8 ovarian): 26.4 µM | GI50 (SK-MEL-28 melanoma): 10.2 µM | TGI (SK-MEL-28 melanoma): 22.2 µM | GI50 (A549 NSCLC): 8.33 µM | TGI (A549 NSCLC): 26 µM | GI50 (SNB-19 CNS): 10.4 µM | TGI (SNB-19 CNS): 23 µM | GI50 (U251 CNS): 10.4 µM | TGI (U251 CNS): 24.5 µM | GI50 (HCC-2998 colon): 2.35 µM | TGI (HCC-2998 colon): 5.46 µM | GI50 (COLO 205 colon): 5.46 µM | TGI (COLO 205 colon): 20.8 µM | GI50 (MCF7 breast): 1.99 µM | TGI (MCF7 breast): 4.05 µM | GI50 (SK-OV-3 ovarian): 13 µM | TGI (SK-OV-3 ovarian): 29.7 µM | GI50 (NCI/ADR-RES ovarian): 7.33 µM | TGI (NCI/ADR-RES ovarian): 21.1 µM | GI50 (786-0 renal): 11.2 µM | TGI (786-0 renal): 25.3 µM | GI50 (HL-60(TB) leukemia): 3.88 µM | TGI (HL-60(TB) leukemia): 29.3 µM | GI50 (CCRF-CEM leukemia): 6.59 µM | TGI (CCRF-CEM leukemia): > 100 µM | GI50 (CAKI-1 renal): 4.75 µM | TGI (CAKI-1 renal): 19.7 µM | GI50 (HCT-15 colon): 2.04 µM | TGI (HCT-15 colon): 3.84 µM | GI50 (K-562 leukemia): 3.34 µM | TGI (K-562 leukemia): 18.6 µM | GI50 (RPMI-8226 leukemia): 3.04 µM | TGI (RPMI-8226 leukemia): > 100 µM | GI50 (OVCAR-4 ovarian): 4.39 µM | TGI (OVCAR-4 ovarian): 23.1 µM | GI50 (BT-549 breast): 13.9 µM | TGI (BT-549 breast): 27.5 µM | GI50 (HCT-116 colon): 1.72 µM | TGI (HCT-116 colon): 3.24 µM | GI50 (NCI-H23 lung): 10.1 µM | TGI (NCI-H23 lung): 22.5 µM | GI50 (HS 578T breast): 7.39 µM | TGI (HS 578T breast): 57.8 µM | GI50 (OVCAR-3 ovarian): 8.59 µM | TGI (OVCAR-3 ovarian): 21.4 µM | GI50 (MDA-MB-231 breast): 4.84 µM | TGI (MDA-MB-231 breast): 18.1 µM | GI50 (ACHN renal): 4.92 µM | TGI (ACHN renal): 17.3 µM | GI50 (SR leukemia): 2.58 µM | TGI (SR leukemia): 8.25 µM | GI50 (HOP-62 NSCLC): 11.8 µM | TGI (HOP-62 NSCLC): 26.8 µM | GI50 (OVCAR-5 ovarian): 13.3 µM | TGI (OVCAR-5 ovarian): 26.6 µM | GI50 (DU-145 prostate): 12.1 µM | TGI (DU-145 prostate): 25.3 µM | GI50 (A498 renal): 11.6 µM | TGI (A498 renal): 24 µM | GI50 (EKVX NSCLC): 4.48 µM | TGI (EKVX NSCLC): 14.8 µM
